The source of these data is ChEMBL document CHEMBL5331145, “Discovery of a Novel Bifunctional Steroid Analog, YXG-158, as an Androgen Receptor Degrader and CYP17A1 Inhibitor for the Treatment of Enzalutamide-Resistant Prostate Cancer” (J Med Chem, 2023).

One data set concerns LNCaP. Kind of data set: Antiproliferative activity against human LNCaP cells incubated for 6 days by CellTiter-Glo assay. In kind it is functional, cell-based. (In general: In ATP-based viability assays light output follows the ATP content of the culture.)
The target in data set [1] is Voltage-gated inwardly rectifying potassium channel KCNH2 (Homo sapiens, UniProt Q12809). As to the kind of experiment: Inhibition of human ERG by patch clamp assay. Format: toxicity. On the technique in general: Patch clamp records ionic current or voltage across a cell membrane.
Data set [2] has as its target T1, Androgen receptor (Homo sapiens, UniProt P10275).
T1 sequence (P10275 whole entry): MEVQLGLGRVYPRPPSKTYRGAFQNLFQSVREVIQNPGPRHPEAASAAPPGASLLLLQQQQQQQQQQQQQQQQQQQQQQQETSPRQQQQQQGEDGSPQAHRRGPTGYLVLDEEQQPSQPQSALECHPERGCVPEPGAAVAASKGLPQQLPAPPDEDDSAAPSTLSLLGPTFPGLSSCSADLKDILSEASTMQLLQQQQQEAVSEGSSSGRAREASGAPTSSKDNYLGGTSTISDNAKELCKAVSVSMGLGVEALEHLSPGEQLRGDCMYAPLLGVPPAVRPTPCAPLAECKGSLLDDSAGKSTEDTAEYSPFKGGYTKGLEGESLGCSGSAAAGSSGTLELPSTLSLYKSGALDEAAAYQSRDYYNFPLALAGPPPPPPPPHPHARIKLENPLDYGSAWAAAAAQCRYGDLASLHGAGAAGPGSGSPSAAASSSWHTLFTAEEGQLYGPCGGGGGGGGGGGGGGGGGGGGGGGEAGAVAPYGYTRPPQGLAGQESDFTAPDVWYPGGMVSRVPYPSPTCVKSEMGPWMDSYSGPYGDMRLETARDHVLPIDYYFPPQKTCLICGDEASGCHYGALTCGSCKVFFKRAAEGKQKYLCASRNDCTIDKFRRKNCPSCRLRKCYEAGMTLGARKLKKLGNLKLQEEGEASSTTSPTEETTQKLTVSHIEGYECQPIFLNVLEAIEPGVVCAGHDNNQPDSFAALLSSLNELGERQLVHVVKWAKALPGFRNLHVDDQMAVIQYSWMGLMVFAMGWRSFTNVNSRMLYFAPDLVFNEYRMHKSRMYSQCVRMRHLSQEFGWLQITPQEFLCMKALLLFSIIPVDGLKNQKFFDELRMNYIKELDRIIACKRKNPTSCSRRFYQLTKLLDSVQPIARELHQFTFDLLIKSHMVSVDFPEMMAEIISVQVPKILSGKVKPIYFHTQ
Kind of data set: Induction of androgen receptor degradation in human LNCaP cells incubated for 24 hrs by ELISA. In kind it is cell-based. For orientation: In an ELISA, binding on a coated surface is turned into a signal by an enzyme label.

Data set [3] deals with T2, Steroid 17-alpha-hydroxylase/17,20 lyase (Homo sapiens, UniProt P05093).
T2 sequence (P05093 whole entry): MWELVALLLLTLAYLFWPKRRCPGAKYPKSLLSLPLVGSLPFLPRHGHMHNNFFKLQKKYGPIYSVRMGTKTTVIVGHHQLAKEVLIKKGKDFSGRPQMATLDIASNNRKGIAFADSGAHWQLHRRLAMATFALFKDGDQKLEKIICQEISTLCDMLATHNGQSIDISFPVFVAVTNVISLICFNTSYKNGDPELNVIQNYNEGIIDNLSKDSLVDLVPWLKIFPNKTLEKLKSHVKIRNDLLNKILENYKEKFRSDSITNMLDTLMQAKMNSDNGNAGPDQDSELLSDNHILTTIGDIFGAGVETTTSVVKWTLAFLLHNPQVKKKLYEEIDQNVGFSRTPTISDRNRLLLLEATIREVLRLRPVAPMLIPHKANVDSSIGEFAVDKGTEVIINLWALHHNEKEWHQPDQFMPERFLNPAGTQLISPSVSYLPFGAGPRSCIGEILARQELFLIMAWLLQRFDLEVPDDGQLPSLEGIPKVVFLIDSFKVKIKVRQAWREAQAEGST
Kind of data set: Inhibition of recombinant human CYP17A1 using progesterone as substrate incubated for 5 mins in presence of NADPH by LC-MS/MS analysis. In kind it is ADME.

For data set [4], the target named is T1, Androgen receptor. Kind of data set: Antagonist activity at wild type androgen receptor expressed in HEK293 cells assessed as reduction in DHT-induced transcriptional activation of androgen receptor incubated for 24 hrs by Steady-Glo assay. Format: cell-based.
Data set [5] can be described thus: Half life in Sprague-Dawley rat at 10 mg/kg, po measured upto 24 hrs by LC-MS/MS analysis. In kind it is ADME, organism-based. As to conditions: in vivo.
Data set [6] in a line: Tmax in Sprague-Dawley rat at 10 mg/kg, po measured upto 24 hrs by LC-MS/MS analysis. Format: ADME, organism-based. As to conditions: in vivo.
Data set [7] can be described thus: Cmax in Sprague-Dawley rat at 10 mg/kg, po measured upto 24 hrs by LC-MS/MS analysis. Format: ADME, organism-based. The arrangement: dose 10 mg/kg, time < 24 hrs, route po. To be noted: in vivo.
Data set [8] is described as follows: AUC(0 to t) in Sprague-Dawley rat at 10 mg/kg, po measured upto 24 hrs by LC-MS/MS analysis. In kind it is ADME, organism-based. To be noted: in vivo.
In data set [9] the target is T3, Androgen receptor (Homo sapiens) (UniProt P10275).
T3 sequence (whole entry): T1 sequence (P10275 whole entry)
Kind of data set: Potency index, ratio of galeterone DC50 to test compound DC50 for induction of androgen receptor degradation in human LNCaP cells. Format: cell-based.

Data set [10] has as its system Androgen receptor (Homo sapiens), P10275 [F877L]. Kind of data set: Antagonist activity at androgen receptor F876L mutant expressed in HEK293 cells assessed as reduction in DHT-induced transcriptional activation of androgen receptor incubated for 24 hrs by Steady-Glo assay relative to control. Format: cell-based. The arrangement: scale not given: the % may be the effect or the level left. As to conditions: filed as antagonist.

Data set [11] can be described thus: Effect on androgen sensitive organs in testosterone propionate stimulated castrated male Sprague-Dawley rat assessed as seminal vesicles weight loss at 20 mg/kg, po administered once daily for 10 days and measured 24 hrs post last dose. In kind it is functional. To be noted: time 11 day.
Data set [12] in a line: Effect on androgen sensitive organs in testosterone propionate stimulated castrated male Sprague-Dawley rat assessed as ventral prostate weight loss at 20 mg/kg, po administered once daily for 10 days and measured 24 hrs post last dose. In kind it is functional. As to conditions: time 11 day.
Data set [13] is described as follows: Antitumor activity against human LNCaP/AR cells xenografted in SCID male mouse assessed as tumor growth inhibition at 10 mg/kg, po administered once daily for 28 days and measured every 3 days. To be noted: time 28 day. In kind it is functional.
The nature of data set [14]: Toxicity in SCID male mouse xenografted with human LNCaP/AR cells assessed as tolerability at 10 mg/kg, po administered once daily for 28 days and measured every 3 days. In kind it is organism-based. As to conditions: in vivo, 672 h, time 28 day.
Data set [15] is described as follows: Toxicity in SCID male mouse xenografted with human LNCaP/AR cells assessed as animal weight loss at 10 mg/kg, po administered once daily for 28 days and measured every 3 days. In kind it is organism-based. To be noted: in vivo, 672 h, time 28 day.
Data set [16] deals with Mus musculus. Kind of data set: In vivo induction of androgen receptor in human LNCaP/AR cells xenografted in SCID mouse assessed as reduction in PSA level at 10 mg/kg, po administered once daily for 28 days by ELISA. Format: functional, organism-based. To be noted: time 28.0 day.
Data set [17] concerns the target Androgen receptor (Homo sapiens) (UniProt P10275). As to the kind of experiment: In vivo induction of androgen receptor in human LNCaP/AR cells xenografted in SCID mouse assessed as reduction in AR protein level at 10 mg/kg, po administered once daily for 28 days by ELISA. As to conditions: time 28.0 day. Also noted: scale not given: the % may be the effect or the level left.

For the next data set, the system named is LNCaP/AR. Kind of data set: Antitumor activity against human LNCaP/AR cells xenografted in SCID male mouse assessed as tumor growth inhibition at 30 mg/kg, po administered once daily for 28 days and measured every 3 days. Format: functional, organism-based. As to conditions: time 28.0 day.
For data set [18], the system named is Mus musculus. Kind of data set: In vivo induction of androgen receptor in human LNCaP/AR cells xenografted in SCID mouse assessed as reduction in PSA level at 10 to 30 mg/kg, po administered once daily for 28 days by ELISA. As to conditions: dose 10-30 mg/kg, time 28.0 day. In kind it is functional, organism-based.
The test system of the next data set is LNCaP C4-2B. Kind of data set: Antitumor activity against enzalutamide resistant human LNCaP C4-2B cells xenografted in BALB/c mouse assessed as tumor growth suppression at 10 mg/kg, po administered once daily for 28 days and measured every 3 days. In kind it is functional, organism-based. As to conditions: time 28.0 day.
Data set [19] addresses T3, Androgen receptor (Homo sapiens). As to the kind of experiment: Induction of androgen receptor degradation in human LNCaP cells incubated for 24 hrs by Western blot analysis. To be noted: dose 1-20 µM. In kind it is cell-based.
The target is the same in data set [20]. Kind of data set: Induction of androgen receptor degradation in human VCaP cells incubated for 24 hrs by Western blot analysis. As to conditions: dose 1-20 µM. Format: cell-based.
The target is the same in data set [21]. As to the kind of experiment: Induction of androgen receptor degradation in human 22Rv1 cells incubated for 24 hrs by Western blot analysis. Format: cell-based. As to conditions: dose 1-20 µM.
Another data set concerns 22Rv1. Kind of data set: Induction of androgen receptor splice variant 7 degradation in human 22Rv1 cells at 1 to 20 uM incubated for 24 hrs by Western blot analysis. Format: cell-based. As to conditions: dose 1-20 µM.
The target in data set [22] is T3, Androgen receptor (Homo sapiens). As to the kind of experiment: Induction of androgen receptor degradation in human LNCaP cells at 20 uM incubated for 24 hrs. Format: cell-based.
The target is the same in data set [23]. Kind of data set: Induction of androgen receptor degradation in human LNCaP cells at 20 uM incubated for 24 hrs in presence of MG-132. Format: cell-based.
The target is the same in data set [24]. As to the kind of experiment: Induction of androgen receptor degradation in human LNCaP cells assessed as reduction in AR mRNA level incubated for 24 hrs by qPCR analysis. In kind it is cell-based. To be noted: dose 1-20 µM.
Data set [25] deals with Androgen receptor (Homo sapiens) (UniProt P10275). Kind of data set: In vivo induction of androgen receptor in human LNCaP/AR cells xenografted in SCID mouse assessed as reduction in AR protein level at 30 mg/kg, po administered once daily for 28 days by ELISA. To be noted: time 28.0 day. Also noted: scale not given: the % may be the effect or the level left.
In data set [26] the target is GABA-A receptor; anion channel. Kind of data set: Antagonist activity at GABA-A (unknown origin). In kind it is toxicity, Homo sapiens.

Structures are written as SMILES. Activity calls are given as the source filed them. A value given as a limit tells only on which side of the number the result lay.

Sequence of Voltage-gated inwardly rectifying potassium channel KCNH2 (Q12809 whole entry): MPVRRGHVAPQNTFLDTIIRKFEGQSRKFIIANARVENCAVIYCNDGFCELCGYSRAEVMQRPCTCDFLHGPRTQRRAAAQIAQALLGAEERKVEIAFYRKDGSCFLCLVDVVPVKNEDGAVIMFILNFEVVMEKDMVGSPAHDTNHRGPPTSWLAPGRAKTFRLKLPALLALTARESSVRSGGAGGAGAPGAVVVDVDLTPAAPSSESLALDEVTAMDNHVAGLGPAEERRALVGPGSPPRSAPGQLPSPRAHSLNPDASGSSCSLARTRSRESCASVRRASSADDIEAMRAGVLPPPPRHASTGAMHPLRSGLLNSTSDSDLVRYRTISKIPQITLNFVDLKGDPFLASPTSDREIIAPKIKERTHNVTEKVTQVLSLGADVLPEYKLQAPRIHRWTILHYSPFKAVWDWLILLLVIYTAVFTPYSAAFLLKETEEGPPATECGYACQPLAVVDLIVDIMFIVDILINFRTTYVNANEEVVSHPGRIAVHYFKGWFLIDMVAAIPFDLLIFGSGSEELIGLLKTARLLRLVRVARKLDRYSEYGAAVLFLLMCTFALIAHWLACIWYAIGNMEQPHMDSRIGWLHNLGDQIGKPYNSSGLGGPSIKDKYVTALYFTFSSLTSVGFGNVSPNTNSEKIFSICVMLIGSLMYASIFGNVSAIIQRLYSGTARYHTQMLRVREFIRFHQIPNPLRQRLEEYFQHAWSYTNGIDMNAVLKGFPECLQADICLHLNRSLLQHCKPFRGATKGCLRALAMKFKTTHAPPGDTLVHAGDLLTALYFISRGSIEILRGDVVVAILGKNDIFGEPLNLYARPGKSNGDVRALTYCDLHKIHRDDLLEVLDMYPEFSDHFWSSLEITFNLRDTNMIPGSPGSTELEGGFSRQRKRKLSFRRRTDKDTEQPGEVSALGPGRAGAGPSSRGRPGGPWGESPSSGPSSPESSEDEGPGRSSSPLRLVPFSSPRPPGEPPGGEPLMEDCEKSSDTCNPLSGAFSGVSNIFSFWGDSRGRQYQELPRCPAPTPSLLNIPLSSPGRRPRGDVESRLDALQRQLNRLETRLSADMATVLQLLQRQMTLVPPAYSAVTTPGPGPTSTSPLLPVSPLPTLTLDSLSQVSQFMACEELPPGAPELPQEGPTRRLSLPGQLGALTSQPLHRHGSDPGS
Sequence of Androgen receptor (Homo sapiens), P10275 [F877L] (P10275 whole entry F877L): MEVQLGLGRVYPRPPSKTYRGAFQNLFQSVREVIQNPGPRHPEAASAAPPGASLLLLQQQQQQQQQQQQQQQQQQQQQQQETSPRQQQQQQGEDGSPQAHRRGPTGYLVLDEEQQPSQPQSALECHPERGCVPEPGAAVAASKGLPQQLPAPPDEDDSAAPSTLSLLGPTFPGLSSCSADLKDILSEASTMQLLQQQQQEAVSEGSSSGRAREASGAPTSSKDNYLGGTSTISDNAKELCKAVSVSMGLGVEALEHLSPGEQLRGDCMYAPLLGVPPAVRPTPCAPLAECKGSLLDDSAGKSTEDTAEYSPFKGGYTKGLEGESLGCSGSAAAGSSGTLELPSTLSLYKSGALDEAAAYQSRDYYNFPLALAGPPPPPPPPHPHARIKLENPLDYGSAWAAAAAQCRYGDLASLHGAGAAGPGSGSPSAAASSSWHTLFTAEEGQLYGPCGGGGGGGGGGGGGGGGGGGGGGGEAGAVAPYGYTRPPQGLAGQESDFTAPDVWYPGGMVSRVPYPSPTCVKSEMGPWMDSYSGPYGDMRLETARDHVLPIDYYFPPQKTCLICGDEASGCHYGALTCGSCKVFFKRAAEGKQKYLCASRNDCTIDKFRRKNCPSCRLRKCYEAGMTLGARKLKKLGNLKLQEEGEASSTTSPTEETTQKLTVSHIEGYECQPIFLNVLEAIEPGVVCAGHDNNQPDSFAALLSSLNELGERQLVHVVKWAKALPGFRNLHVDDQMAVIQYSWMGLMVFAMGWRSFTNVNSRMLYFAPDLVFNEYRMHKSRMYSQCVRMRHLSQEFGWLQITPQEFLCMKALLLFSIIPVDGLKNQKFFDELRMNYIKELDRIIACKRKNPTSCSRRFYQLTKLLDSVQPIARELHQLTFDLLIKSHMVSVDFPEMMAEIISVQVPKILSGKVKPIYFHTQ

For the compound `Cc1cn(C2=CCC3C4CC=C5C[C@@H](NC(=O)c6ccncc6)CC[C@]5(C)C4CC[C@]23C)cn1` (stereo partly drawn), the IC50 – broadly, the concentration that inhibits the measured activity by half – in the data set with LNCaP was 341 nM; in data set [1], 6470 nM; in data set [3], 2590 nM; on Androgen receptor [4], 612 nM. Besides, the EC50 (usually the concentration needed to bring the measured effect to its halfway point) on Androgen receptor [2] was 2840 nM. Also, the half-life (as a rule, the time needed for the level to fall by half in the phase considered) in [5] is 2.8 h. In data set [6], the Tmax (as a rule, the time at which the peak concentration occurs) was 2.17 h. Also, the Cmax (as a rule, the peak of the concentration-time curve) in [7] worked out at 2670 ng/mL. Moreover, the AUCt in [8] amounted to 24800 h/ng/mL.

As to `Cc1cn(C2=CCC3C4CC=C5C[C@@H](NC(=O)c6ccc(F)cc6F)CC[C@]5(C)C4CC[C@]23C)cn1` (stereo partly drawn), the IC50 in the data set with LNCaP was 327 nM; in data set [1], over 40000 nM; in [3], 127 nM. This compound also came in with an EC50 at Androgen receptor [2] of 1680 nM. Besides, in data set [9], the Ratio turned out to be 8.6. Moreover, the Activity is 41.6% in [10]; -65% in data set [11]; -65% in data set [12]; “Non-Toxic” in data set [14]; “Non-Toxic” in data set [15]. The same compound had a half-life in [5] of 6.02 h. For the same compound, in [6], the time of peak concentration (Tmax) came out at 6 h. Besides, the peak level in data set [7] (Cmax) was 1520 ng/mL. In data set [8], this compound gave an AUCt of 22542 h/ng/mL. Also, in data set [13] (Homo sapiens, LNCaP/AR, 672 h, read-out: TGI), the inhibition in vivo at 10 mg/kg was 50%. In addition, the outcome in the data set on Mus musculus [16] was Active. Further, in data set [17], the outcome was inactive.

On to `Cc1cn(C2=CCC3C4CC=C5C[C@@H](NC(=O)c6ccc(F)cc6)CC[C@]5(C)C4CC[C@]23C)cn1` (stereo partly drawn), for which the Activity in data set [10] is 68%; in data set [19], “Dose-Dependent Effect”; in data set [20] it was “Dose-Dependent Effect”; in data set [21], “Dose-Dependent Effect”; in data set [24] it was “Dose-Dependent Effect”; in data set [17], 40%. For the same compound, the Activity in data set [25] was 52%. Also, the outcome (in the data set on LNCaP/AR; in the data set with Mus musculus [18]; in the data set with 22Rv1; in [22]) was Active. Further, the result (in the data set with LNCaP C4-2B; in data set [23]) was inactive.

`CNC(=O)c1ccc(N2C(=S)N(c3ccc(C#N)c(C(F)(F)F)c3)C(=O)C2(C)C)cc1F` [ENZALUTAMIDE]: the Activity in [11] and in data set [12] was -67% in each case. The TGI (as a rule, the reduction of tumour growth relative to the control group) in data set [13] was 64%. This compound returned a half-inhibitory concentration (IC50) in data set [26] of 4800 nM.
